From patent US20260055118A1, “VISIBLE LIGHT SENSITIVE PHOTOREMOVABLE PROTECTING GROUPS, PREPARATION PROCESS THEREOF, PHOTOACTIVATABLE CONJUGATES COMPRISING THEM AND USES THEREOF” (HUN-REN TERMÉSZETTUDOMÁNYI KUTATÓKÖZPONT, priority 2022, published 2026)

Key:
SK-OV-3 cells = assay: Live cell confocal fluorescence imaging (cell permeability, colocalization); format: cell-based, human; conditions: live SK-OV-3 cells, confocal microscopy
Description: SKOV3 (ATCC HTB-77) cells were maintained in McCoy's 5A (Modified) Medium, HEPES (Gibco 22330021) media supplemented with 10% FBS (Gibco 10500-064), 1% penicillin-streptomycin (Gibco 15140-122). The cells were cultured at 37° C. in a 5% CO2 atmosphere and passaged—using trypsin (Gibco 25300-054)—every 3-4 days up to 20 passages.
SKOV3 ([…]) cells were transferred into μ-Slide 8 well plates (Ibidi 80827) and were incubated for 40 h at 37° C. in a 5% CO2 atmosphere. After 30 min treatment with compounds X1′-SN38 and X2′—SN38 in the concentration of 1 μM and in some cases in combination with 1 nM MitoTracker Deep Red FM (Invitrogen M22426) or 1 nM LysoTracker Deep red (Invitrogen L12492) or 50 nM MitoTracker Red FM (Invitrogen M22425) or 50 nM LysoTracker red DND-99 (Invitrogen L7528). The samples were subjected to microscopy analyses. […]
Due to their high fluorescence, the cell permeability of compounds X1′-SN38 and X2′-SN38 were tested in live SK—OV-3 (human ovarian carcinoma) cells using confocal microscopy. […] The decrease of fluorescence (related to the photolysis reaction) was only observed in the irradiated area. Overall, these experiments serve as evidence for the cell permeability, biocompatibility and excellent ability of this invention to determine the localization of the photoactivatable conjugates via fluorescence microscopy.

[1] = Uncaging quantum yield determination relative to BODIPY reference; format: physicochemical; conditions: calculated from the disappearance of the target conjugate; green light irradiation
Description: The relative photochemical quantum yields of the uncaging reactions together with the degradation quantum yields were determined from the results of the quantitative HPLC-UV experiments. In all cases, green light irradiation was used since all target conjugates absorbed in this range as well as the reference BODIPY. The photochemical quantum yields were determined using the following equation:
[formula] • where • Φu is the photochemical quantum yield of the sample • Φu,ref is the photochemical quantum yield of the reference • k is the obtained reaction rate constant of the photoreaction of the sample • kref is the obtained reaction rate constant of the photoreaction of the reference • c is the concentration of the sample • cref is the concentration of the reference • V is the volume of the sample • Vref is the volume of the reference • a is the absorption correction factor of the sample • aref is the absorption correction factor of the reference
The absorption correction factors (a) were determined from the molar absorption coefficients and the green LED emission data obtained by the fluorimeter. […] In other words, the transmittance at each wavelength together with the emission data of the light source can be used to calculate the percentage of absorbed photons according to the following equation:
[formula] • where • T(λ) is the transmittance at each wavelength (determined from the molar absorption coefficients) • F(λ) is the LED emission at each wavelength • λmin, λmax is the LED emission range.
The rate constants of the photoreactions were determined by considering the reactions monoexponential with an initial linear phase (up to 10-20% degradation). First, the concentration vs. HPLC-UV peak were determined for each cargo moieties. […] The rate constants were determined for both the reference (with known Φu) and the sample. For reference, a commonly known BODIPY derivative was used with a similar phenylacetic acid-derived cargo unit (substrate 7 from REF^40), Φu=0.15%:
The calculated photochemical quantum yields together with uncaging cross-sections or quantum efficiencies (product of the molar absorption coefficient at a given wavelength, shown in parentheses and the photochemical quantum yield) are shown in Table 2. In the table, Φu is the photochemical quantum yield of the release; Φdeg is the photochemical quantum yield of degradation; ε×Φu is the uncaging cross-section or quantum efficiency of the release at a given wavelength in parentheses.

CCc1c2c(nc3ccc(OC(=O)N(C)CCN(C)C(=O)OC(C)c4c5ccc(=[N+]6CCCC6)cc-5oc5cc(N6CCCC6)ccc45)cc13)-c1cc3c(c(=O)n1C2)COC(=O)C3(O)CC.[I-] (mixture of isomers) [X1′-SN38]
cell permeability (SK-OV-3 cells): cell permeable
Φdeg, degradation quantum yield [1]: 0.15%
